According to patent US4013774A (priority 1975, dated 1977):
Where two headings read alike, the source gives them in different places.

How the values were obtained:
[1] = system: Aphids (Aphis gossypii Glover); assay: whole plant or invertebrate; conditions: in Cucumis sativus, 24 h; for mortality at 4 ppm: read-out: Aphids, mortality, 4 ppm; for mortality at 40 ppm: read-out: Aphids, mortality, 40 ppm (*)
[2] = system: American Cockroach (Periplaneta americana L.); assay: whole plant or invertebrate; conditions: 24 h; for mortality at 16 ppm: read-out: Cockroach, mortality, 16 ppm
in vivo = conditions: rat, po
[3] = system: Flour Beetle (Tribolium confusum DuVal); assay: whole plant or invertebrate; conditions: in Triticum aestivum, 168 h, read-out: Flour Beetle, mortality, 5 ppm
[4] = system: Mosquito larvae (Aedes aegypti); assay: whole plant or invertebrate; conditions: 48 h, read-out: Mosquito, mortality, 0.05 ppm
rats = conditions: background statement; cited from earlier work
insects = conditions: against a variety of insects; background, U.S. Pat. No. 3,474,171; cited from earlier work
[5] = read-out: Aphids, mortality, 0.64 ppm
[6] = topical, read-out: Cockroach, mortality, 100 ppm

Row | SMILES | mortality at 0.64 ppm ([1]; read-out: control of aphids) | mortality at 100 ppm ([2]; read-out: control of American cockroaches) | LD50 (in vivo) | mortality at 5 ppm [3] | mortality at 0.05 ppm [4] | mortality at 0.64 ppm [1, 5] | mortality at 4 ppm [1] | mortality at 16 ppm ([2]; topical) | mortality at 100 ppm [2, 6] | mortality at 40 ppm [1] | oral toxicity, LD50 (rats) (rats) | contact and systemic activity (insects)
1 | CN(SN(C)C(=O)Oc1cccc2c1OC(C)(C)C2)C(=O)Oc1cccc2c1OC(C)(C)C2 [Bis[O-(2,3-dihydro-2,2-dimethyl-7-benzofuranyl]-N-methylcarbamyl] sulfide] | 100% | 100% | – | – | – | – | – | – | – | – | – | –
2 | CN(SC(Cl)(Cl)Cl)C(=O)Oc1cccc2c1OC(C)(C)C2 [Compound 1, N-methyl-N-trichloromethylthio-2,3-dihydro-2,2-dimethyl-7-benzofuranyl carbamate] | – | – | 125 to 250 mg/kg | 100% | 46% | 91% | 100% | 15% | 100% | – | – | –
3 | CSN(C)C(=O)Oc1cccc2c1OC(C)(C)C2 [Compound 3, 2,3-dihydro-2,2-dimethyl-7-benzofuranyl N-methyl N-methylthiocarbamate] | – | – | 5 to 25 mg/kg | – | – | 97% | 100% | 100% | 100% | – | – | –
4 | CN(Sc1ccc(Cl)cc1)C(=O)Oc1cccc2c1OC(C)(C)C2 [Compound 4, 2,3-dihydro-2,2-dimethyl-7-benzofuranyl N-methyl N-p-chlorophenylthiocarbamate] | – | – | 25 to 41 mg/kg | 96% | 100% | 97% | 100% | 5% | 100% | – | – | –
5 | CN(SC(Cl)=C(Cl)Cl)C(=O)Oc1cccc2c1OC(C)(C)C2 [Compound 5, N-methyl-N-trichlorovinylthio-2,3-dihydro-2,2-dimethyl-7-benzofuranyl carbamate] | – | – | – | – | – | 100% | 100% | 47% | 100% | – | – | –
6 | CCCCSN(C)C(=O)Oc1cccc2c1OC(C)(C)C2 [Compound 6] | – | – | 60 to 125 mg/kg | – | 100% | 97% | 100% | 95% | 100% | – | – | –
7 | CCSN(C)C(=O)Oc1cccc2c1OC(C)(C)C2 [Compound 7, N-methyl-N-ethylthio-2,3-dihydro-2,2-dimethyl-7-benzofuranyl carbamate] | – | – | 25 to 125 mg/kg | – | 26% | 92% | – | – | – | – | – | –
8 | CCCCCCCCCCCCSN(C)C(=O)Oc1cccc2c1OC(C)(C)C2 [Compound 8, N-methyl-N-dodecylthio-2,3-dihydro-2,2-dimethyl-7-benzofuranyl carbamate] | – | – | > 125 mg/kg | – | – | – | – | 0% | 20% | 100% | – | –
9 | CN(Sc1ccccc1)C(=O)Oc1cccc2c1OC(C)(C)C2 [Compound 9, N-methyl-N-phenylthio-2,3-dihydro-2,2-dimethyl-7-benzofuranyl carbamate] | – | – | 25 to 125 mg/kg | – | – | 98% | 100% | 37% | 100% | – | – | –
10 | Cc1ccc(SN(C)C(=O)Oc2cccc3c2OC(C)(C)C3)cc1 [Compound 10] | – | – | 25 to 125 mg/kg | 76% | – | 96% | 100% | 2% | 100% | – | – | –
11 | CN(Sc1ccc(Cl)c(Cl)c1)C(=O)Oc1cccc2c1OC(C)(C)C2 [Compound 11] | – | – | 25 to 125 mg/kg | – | 100% | 97% | – | – | – | – | – | –
12 | CN(Sc1cc(Cl)ccc1Cl)C(=O)Oc1cccc2c1OC(C)(C)C2 [Compound 12] | – | – | 25 to 125 mg/kg | – | 100% | 61% | – | – | – | – | – | –
13 | CN(Sc1ccc(Br)cc1)C(=O)Oc1cccc2c1OC(C)(C)C2 [Compound 13] | – | – | 25 to 125 mg/kg | – | 93% | 98% | – | – | – | – | – | –
14 | CN(Sc1ccc(F)cc1)C(=O)Oc1cccc2c1OC(C)(C)C2 [Compound 14, N-methyl-N-4-fluorophenylthio-2,3-dihydro-2,2-dimethyl-7-benzofuranyl carbamate] | – | – | 25 to 125 mg/kg | – | 100% | 92% | – | – | – | – | – | –
15 | CN(Sc1ccc([N+](=O)[O-])cc1)C(=O)Oc1cccc2c1OC(C)(C)C2 [Compound 15] | – | – | 25 to 60 mg/kg | – | – | 96% | 100% | 97% | 100% | – | – | –
16 | CN(Sc1ccc(C(C)(C)C)cc1)C(=O)Oc1cccc2c1OC(C)(C)C2 [Compound 16] | – | – | 125 to 250 mg/kg | – | – | – | – | 0% | 67% | 100% | – | –
17 | CNC(=O)Oc1cccc2c1OC(C)(C)C2 [FURADAN, N-methyl 2,3-dihydro-2,2-dimethyl-7-benzofuranyl carbamate, reference compound] | – | – | 11 mg/kg | 10% | 0% | 73 to 98% | 100% | 100% | 100% | – | 5 to 11 mg/kg | high contact and systemic activity
